Results on three compounds are retold here after ChEMBL document CHEMBL5352486, “Design, synthesis, in vitro - In vivo biological evaluation of novel thiazolopyrimidine compounds as antileishmanial agent with PTR1 inhibition” (Eur J Med Chem, 2023).

Converted amounts (≈) assume the structure as drawn. The source made the active and inactive calls. No cut-off for these calls is given here.

The subject of series [1] is Leishmania infantum. Description: Antileishmanial activity against Leishmania infantum infected in BALB/c mouse model of cutaneous leishmaniasis assessed as footpad lesion development at 50 mg/kg/day, ID administered for 21 days and measured after 2 weeks by Giemsa staining based analysis (reference value: 1.61 +/- 0.03). Type of series: functional. The following applies: time 21 day.

Series [2] deals with Leishmania infantum. Description: Antileishmanial activity against Leishmania infantum infected in BALB/c mouse model of visceral leishmaniasis assessed as footpad lesion development at 50 mg/kg/day, IM administered for 21 days and measured after 8 weeks by Giemsa staining based analysis (reference value: 23.84 +/- 0.93). It is filed as functional. The conditions noted are these: time 21 day.

Series [3] concerns Leishmania tropica. Kind of series: Antileishmanial activity against Leishmania tropica MHOM/A7/1974/SAF-K27 incubated for 48 hrs by XTT method. Type of series: functional, organism-based. The following applies: MHOM/A7/1974/SAF-K27, 48 h.
Series [4] has as its system Leishmania infantum. Description: Antileishmanial activity against Leishmania infantum infected in BALB/c mouse model of visceral leishmaniasis assessed as footpad lesion development at 50 mg/kg/day, IM administered for 21 days and measured after 6 weeks by Giemsa staining based analysis (reference value: 25.81 +/- 0.84). The conditions noted are these: time 21 day. Type of series: functional.

Series [5] has as its system Leishmania infantum. Kind of series: Antileishmanial activity against Leishmania infantum infected in BALB/c mouse model of visceral leishmaniasis assessed as parasite growth in liver at 50 mg/kg/day, IM administered for 21 days. It is filed as functional, organism-based. The following applies: time 21.0 day.
The subject of series [6] is Leishmania infantum. Kind of series: Antileishmanial activity against Leishmania infantum infected in BALB/c mouse model of cutaneous leishmaniasis assessed as parasite growth in foodpad at 50 mg/kg/day, ID administered for 21 days. It is filed as functional, organism-based. The conditions noted are these: time 21.0 day.
The subject of series [7] is Leishmania infantum. Description: Antileishmanial activity against Leishmania infantum infected in BALB/c mouse model of cutaneous leishmaniasis assessed as footpad lesion development at 50 mg/kg/day, ID administered for 21 days and measured after 26 weeks by Giemsa staining based analysis (reference value: 4.91 +/- 0.01). It is filed as functional. The following applies: time 21 day.

Series [8] concerns Leishmania infantum. Kind of series: Antileishmanial activity against Leishmania infantum infected in BALB/c mouse model of visceral leishmaniasis assessed as footpad lesion development at 50 mg/kg/day, IM administered for 21 days and measured after 4 weeks by Giemsa staining based analysis (reference value: 28.01 +/- 0.65). The following applies: time 21 day. It is filed as functional.

Series [9] relates to Leishmania infantum. Kind of series: Antileishmanial activity against Leishmania infantum infected in BALB/c mouse model of visceral leishmaniasis assessed as footpad lesion development at 50 mg/kg/day, IM administered for 21 days and measured after 1 week by Giemsa staining based analysis (reference value: 30.43 +/- 0.60). Type of series: functional. The conditions noted are these: time 21 day.

In series [10] the test system is Leishmania infantum. Kind of series: Antileishmanial activity against Leishmania infantum infected in BALB/c mouse model of visceral leishmaniasis assessed as footpad lesion development at 50 mg/kg/day, IM administered for 21 days and measured after 11 weeks by Giemsa staining based analysis (reference value: 20.71 +/- 0.48). Type of series: functional. The conditions noted are these: time 21 day.

In series [11] the test system is Leishmania infantum. Kind of series: Antileishmanial activity against Leishmania infantum infected in BALB/c mouse model of cutaneous leishmaniasis assessed as parasite growth in liver at 50 mg/kg/day, ID administered for 21 days. It is filed as functional, organism-based. The conditions noted are these: time 21.0 day.
The subject of series [12] is Leishmania infantum. Kind of series: Antileishmanial activity against Leishmania infantum MHOM/TN/1980/IPT1 incubated for 48 hrs by Neubauer hemocytometer analysis. It is filed as functional, organism-based. The conditions noted are these: MHOM/TN/1980/IPT1, 48 h.
For series [13], the system named is Leishmania infantum. Description: Antileishmanial activity against Leishmania infantum infected in BALB/c mouse model of cutaneous leishmaniasis assessed as footpad lesion development at 50 mg/kg/day, ID administered for 21 days and measured after 18 weeks by Giemsa staining based analysis (reference value: 4.42 +/- 0.03). It is filed as functional. The following applies: time 21 day.

For series [14], the system named is Leishmania infantum. Kind of series: Antileishmanial activity against Leishmania infantum infected in BALB/c mouse model of visceral leishmaniasis assessed as footpad lesion development at 50 mg/kg/day, IM administered for 21 days and measured after 2 weeks by Giemsa staining based analysis (reference value: 29.73 +/- 0.63). Type of series: functional. The following applies: time 21 day.

The test system of series [15] is Leishmania infantum. Description: Antileishmanial activity against Leishmania infantum infected in BALB/c mouse model of visceral leishmaniasis assessed as footpad lesion development at 50 mg/kg/day, IM administered for 21 days and measured after 9 weeks by Giemsa staining based analysis (reference value: 22.75 +/- 0.71). It is filed as functional. The conditions noted are these: time 21 day.

The nature of series [16]: (§1) Cytotoxicity against mouse L929 cells by alamar blue method. Type of series: toxicity, cell-based. The conditions noted are these: mouse, L929 cells. On the technique in general: Resazurin is reduced to fluorescent resorufin, in cell work by metabolically active cells.
A further series relates to L929. The series is described as §1. Type of series: toxicity, cell-based. The following applies: l929.
Series [17] relates to Leishmania tropica. Kind of series: Potency index, ratio of glucantime IC50 to test compound IC50 for antileishmanial activity against Leishmania tropica MHOM/A7/1974/SAF-K27. Type of series: functional.

A word on the IC50: it is the concentration that gives 50% inhibition. As to `CN(C)c1ncc2nc(NC(=O)c3ccc(Cl)c([N+](=O)[O-])c3)sc2n1`, the Activity in the series on Leishmania infantum [1] amounted to 1.59; in the series with Leishmania infantum [2], 27.42; in the series with Leishmania infantum [4] it was 26.28; in the series with Leishmania infantum [7], 4.7; in the series on Leishmania infantum [8], 27.83; with Leishmania infantum [9], 30.38. Further, the Activity with Leishmania infantum [10] is reported as 29.85; in the series on Leishmania infantum [13], 4.41; with Leishmania infantum [14] it was 29.49; with Leishmania infantum [15] it was 28.13. The IC50 with Leishmania tropica [3] worked out at 6.68 µg/mL (≈ 17.6 µM); with Leishmania infantum [12] it was 7.06 µg/mL (≈ 18.6 µM); in [16], 21 µg/mL (≈ 55.5 µM). Also, the result with Leishmania infantum [5], in the series on Leishmania infantum [6] and with Leishmania infantum [11] was Active. Besides, the “log10 IC50 (µg/mL)” value in the series with L929 amounted to 1.32.
Consider `CN1CCN(c2ncc3nc(NC(=O)c4ccc(Cl)c(Cl)c4)sc3n2)CC1`, for which the Activity with Leishmania infantum [1] worked out at 1.61; in the series with Leishmania infantum [2] it was 23.36; in the series with Leishmania infantum [4], 25.72; in the series with Leishmania infantum [7], 4.87; with Leishmania infantum [8], 27.9; in the series with Leishmania infantum [9] it was 30.3. For the same compound, the Activity with Leishmania infantum [10] is reported as 20.13; with Leishmania infantum [13], 4.4; in the series with Leishmania infantum [14], 29.53; in the series on Leishmania infantum [15], 22.18. The IC50 with Leishmania tropica [3] was found to be 7.81 µg/mL (≈ 18.4 µM); in the series with Leishmania infantum [12], 8.16 µg/mL (≈ 19.3 µM); in series [16], 27.7 µg/mL (≈ 65.5 µM). In addition, the result in the series on Leishmania infantum [5] and in the series with Leishmania infantum [6] was inactive. For the same compound, the result in the series on Leishmania infantum [11] was Active. For the same compound, the “log10 IC50 (µg/mL)” value in the series with L929 is recorded as 1.44.
With `CCOC(=O)N1CCN(c2ncc3nc(NC(=O)c4ccc(Cl)c(Cl)c4)sc3n2)CC1`, the Activity in the series with Leishmania infantum [1] is 1.6; in the series on Leishmania infantum [2], 26.84; in the series on Leishmania infantum [4], 25.71; in the series with Leishmania infantum [7], 4.73; with Leishmania infantum [8], 27.85; in the series with Leishmania infantum [9], 30.63. Further, the Activity worked out at 28.55 in the series on Leishmania infantum [10], 4.4 in the series on Leishmania infantum [13], 29.54 with Leishmania infantum [14] and 27.35 in the series with Leishmania infantum [15]. The IC50 with Leishmania tropica [3] stood at 0.04 µg/mL (≈ 0.0831 µM); in the series with Leishmania infantum [12], 0.041 µg/mL (≈ 0.0852 µM); in series [16] it was 14.1 µg/mL (≈ 29.3 µM). For the same compound, the “Ratio IC50” value in the series on Leishmania tropica [17] came out at 200. Also, the outcome in the series on Leishmania infantum [5], in the series with Leishmania infantum [6] and in the series with Leishmania infantum [11] was Active. In addition, the “log10 IC50 (µg/mL)” value in the series with L929 amounted to 1.15.
